Data set [1] has as its system Pain of Inflammation on the Back Paw of the Rat. Description: Activity against the pain of inflammation on the back paw of the rat (RANDALL-SELITTO). It is filed as in vivo, rat (male Chbb:THOM-rats). The note with it: po, 1.5 h, dose at which pain threshold rises by 50% vs controls, esophageal tube, 1% methyl cellulose, 90 minutes after phlogistic, 90 minutes before determination, linear regression. The method, then:
(§1) were tested with regard to analgesic activity in the rat, analgesic activity in the mouse, and acute toxicity in the mouse:
1. Activity against the Pain of Inflammation on the Back Paw of the Rat
The activity against the pain caused by inflammation was tested according to the method of RANDALL-SELITTO [Arch. Int. Pharmacodyn., 111, 409 (1957)]. Male Chbb:THOM-rats having body weights of from 100 to 130 grams received a subplantar injection of 0.1 ml of a suspension of 1,12 g of dry yeast in 18.9 ml of a 5.5% glucose solution into a back paw.
At 90 minutes after injection of the phlogistic, that is, ninety minutes before determination of the pain threshold, the animals received various doses of the test substances as a trituration in 1% methyl cellulose (1 ml/100 gm of animal) through an esophageal tube. Control animals received corresponding volumes of the vehicle. The pain threshold was determined in the rat in terms of the grams of bearing pressure on a paw, based on the weight of the animal.
From the pain threshold, measured according to the various doses of the test substance, and with linear regression analysis according to LINDER [Statistische Methoden, 4th ed., pp. 148-162, Birkhauser, Basel, 1964] an ED50 was determined. The ED50 dose is one in which the pain threshold rises by 50%, as compared to the controls.

In data set [2] the test system is Sensitivity of the Mouse in the Hot Plate Test. Description: Activity against the sensitivity of the mouse in the hot plate test (CHEN and BECKMAN). In kind it is in vivo, mouse (male Chbb:NMRI (SPF)-mice). The note with it: po, dose increasing time of reaction by 100%, hot plate 52° C., esophageal tube, 1% methyl cellulose, linear regression. The method, then:
as §1
2. Activity against the Sensitivity of the Mouse in the Hot Plate Test
The test was performed according to the method described by CHEN and BECKMAN [Science, 113, 631 (1951)] in male Chbb:NMRI (SPF)-mice with an average weight of 20 grams.
The test substances were administered as trituration in 1% methyl cellulose (0.1 ml/10 gm of mouse) by means of an esophageal tube. Before treatment with the test substances, the animals were twice put on the hot plate at intervals of 30 to 120 minutes, whereby their individual times of reaction were measured. After treatment with a test substance, the times of reaction of the animals were again measured in intervals of 30 to 120 minutes.
From the average maximum increase of the time of reaction obtained after treatment with different doses, and after linear regression analysis according to LINDER, an ED100 dose was calculated. The ED100 dose is one which increased the time of reaction by 100%.
In general terms: In hot-plate and tail-flick tests a longer latency is read as antinociception.

A further data set is described as follows: Acute toxicity in mice. It is filed as in vivo. The note with it: in vivo, po; mouse, esophageal tube, 1% methyl cellulose; deaths within 14 days; LITCHFIELD and WILCOXON
The method, then: as §1
(§2) 3. Acute Toxicity in Mice
(§3) The acute toxicity was determined in Chbb:NMRI (SPF)-mice of both sexes, having an average body weight of 20 grams. The test compounds were administered as a trituration in 1% methyl cellulose (0.2 ml/10 gm of animal) by means of an esophageal tube. The calculation of the LD50 values was effected according to the method of LITCHFIELD and WILCOXON [J. Pharmacol. Exp. Ther., 96, 99 (1949)], based upon the percentage of animals which died within 14 days after administration of different doses.

Another data set has as its system Chbb:NMRI (SPF)-mice. The experiment in a line: Acute toxicity in mice. The note with it: dose 1000 mg/kg (footnote * of Table 3), mouse, esophageal tube, within 14 days. In kind it is in vivo. The method, then:
as §1, §2, §3

Molecules are shown by their SMILES.

For the molecule `Cc1nn(C)c2c1Nc1ncccc1NC2=O` [A, 1,3-dimethyl-1,4,9,10-tetrahydro-pyrazolo[4,3-e]pyrido[3,2-b][1,4]diazepin-10-one], the 50% effect level in data set [1] (ED50) was put at a dose of 26 mg/kg. Also, the ED100 in data set [2] stood at 15 mg/kg. In addition, the LD50 (usually the dose expected to kill half of the subjects tested) at 336 h in “Acute toxicity in mice” was 152 mg/kg.
Taken in the same sequence, the figures for `Cc1nn(C)c2c1Nc1ncccc1N(C)C2=O` [B, 1,4,9,10-tetrahydro-1,3,9-trimethyl-pyrazolo[4,3-e]pyrido[3,2-b][1,4]diazepin-10-one] were 11 mg/kg, 30 mg/kg and 175 mg/kg.
As to `CCN1C(=O)c2c(c(C)nn2C)Nc2ncccc21` [C, 1,3-dimethyl-9-ethyl-1,4,9,10-tetrahydro-pyrazolo[4,3-e]pyrido[3,2-b][1,4]diazepin-10-one], the 50% effect level in data set [1] (ED50) was put at a dose of 28 mg/kg. Moreover, the ED100 in data set [2] worked out at 28 mg/kg. In addition, in the data set “Acute toxicity in mice”, the median lethal dose (LD50) at 336 h came to 171 mg/kg.
For `Cc1nn(C)c2c1N(C)c1ncccc1N(C)C2=O` [D, 1,4,9,10-tetrahydro-1,3,4,9-tetramethyl-pyrazolo[4,3-e]pyrido[3,2-b][1,4]diazepin-10-one], in data set [1], the ED50 (in general, the dose that gives a 50% effect, or the effect in half of the subjects) turned out to be 7.4 mg/kg. The LD50 at 336 h in the data set “Acute toxicity in mice” is 225 mg/kg.
Taken in the same sequence, the figures for `CCN1C(=O)c2c(c(C)nn2C)N(C)c2ncccc21` [E, 9-ethyl-1,4,9,10-tetrahydro-1,3,4-trimethyl-pyrazolo[4,3-e]pyrido[3,2-b][1,4]diazepin-10-one] were 5.9 mg/kg and 202 mg/kg.
On to `CCCCN1C(=O)c2c(c(C)nn2C)Nc2ncccc21` [F, 9-(n-butyl)-1,3-dimethyl-1,4,9,10-tetrahydro-pyrazolo[4,3-e]pyrido[3,2-b][1,4]diazepin-10-one], for which the ED50 in data set [1] is 139 mg/kg. The ED100 in data set [2] was 87 mg/kg. In the data set “Acute toxicity in mice”, this molecule had an LD50 at 336 h of more than 1000 mg/kg. Besides, the “animals died after administration of this dose” value in the data set with Chbb:NMRI (SPF)-mice is 1 out of 8.

The values above are taken from patent US4381303A, “1,4,9,10-Tetrahydro-pyrazolo [4,3-]pyrido[-3,2-b][1,4]diazepin-10-ones” (Dr. Karl Thomae GmbH, priority 1981, dated 1983).
